Where a name gives a salt, the structure may show the parent alone.

Test [1] concerns the target T1, human recombinant HDAC 2 (Homo sapiens, UniProt Q92769).
T1 construct: purchased BPS Bioscience 50002
Description: HDAC inhibition assay (Fluor de Lys), HDAC2. Format: biochemical. As to conditions: inhibitor-protein incubation 2 hours, reaction 1 h 30 min, 37° C. On the procedure: All assays were carried out in the assay buffer: 50 mM Tris/Cl, pH 8.0, 137 mM NaCl, 2.7 mM KCl, 1 mM MgCl2).
Reactions were carried out in a 96-wells microplate (Corning 96 well Flat Bottom Non-binding surface (black) ref. 3651).
Potential inhibitors were added after five fold serial dilutions in DMSO. Final DMSO concentration in the assay microplate was kept at 2%.
Afterwards, human recombinant HDAC1, HDAC 2 or HDAC 8 were added up to […] respectively in assay buffer. When necessary, the mixture was incubated at room temperature prior the addition of substrate.
Total reaction volume of 50 μl. Human recombinant HDACs could be acquired from commercial sources (HDAC1: ref. #50001, BPS Bioscience™; HDAC 2: ref. #50002, BPS Bioscience™; HDAC 8: ref. #50008, BPS Bioscience™).
Reactions were stopped with 50 μl Developer (KI-105 Fluor de Lys™, BIOMOL®) with 2 μmol/L trichostatin A (TSA, final concentration 1 μmol/L). After 20 minutes at 37° C., fluorescence (excitation 360 nm, emission 460 nm) was measured using an Infinite F200 fluorimeter (Tecan). Background was determined in reactions using substrate in the absence of enzyme.
IC50 values are defined as the compound concentration at which the deacetylase activity is 50% inhibited. In these assays the following grading was used (I: IC50≦10 μM; II: 10 μM<IC50≦100 μM; III: 100 μM<IC50≦1 mM) The results obtained are summarized in Table 4.

Test [2] concerns human colon cancer cell line HCT116. Kind of test: alamarBlue viability assay, HCT116. Format: cell-based. As to conditions: HCT-116, 72 hours, dose required to inhibit cell growth by 50%. Here is the method: The human colon cancer cell line HCT116 and the human breast cancer cell line MCF-7 were from the American Type Culture Collection (ATCC; CCL-247 and HTB-22, respectively).
The HCT116 cell line was maintained in DMEM GlutaMAX (Invitrogen) supplemented with 10% fetal calf serum and the MCF7 cell line was maintained in RPMI1640 GlutaMAX (Invitrogen) containing 1 mM sodium piruvate and 10% fetal calf serum.
Cells were grown in a humidified incubator at 37° C. in 5% CO2.
Cells were plated in 96-well plates at a density of 6000 cells/well in 100 μl medium 24 h before addition of drugs. […] To do so, a drugs-dilution plate at twice the screening concentrations was prepared. 72 hours later, alamarBlue (Biosource, Invitrogen) viability assay was performed following manufacturer's protocol. In brief, alamarBlue diluted in media was added to cells to have a 5% solution. Cells were incubated at 37° C., 3 hours and at room temperature, 30 min. Cells with no drug and, cells with no drug and lysed with triton X-100 were used as controls. Fluorescence was monitored at 530 nm excitation and 590 nm emission wavelengths. Results were quantified using Infinite F200 Microplate Reader (Tecan Group, Ltd.). EC50 were calculated as the dose of drugs required to inhibit cell growth by 50%, with Origin 7.0 computer program.
(Alamar Blue is a resazurin reagent that responds to reducing activity.)

T1 sequence (Q92769 whole entry): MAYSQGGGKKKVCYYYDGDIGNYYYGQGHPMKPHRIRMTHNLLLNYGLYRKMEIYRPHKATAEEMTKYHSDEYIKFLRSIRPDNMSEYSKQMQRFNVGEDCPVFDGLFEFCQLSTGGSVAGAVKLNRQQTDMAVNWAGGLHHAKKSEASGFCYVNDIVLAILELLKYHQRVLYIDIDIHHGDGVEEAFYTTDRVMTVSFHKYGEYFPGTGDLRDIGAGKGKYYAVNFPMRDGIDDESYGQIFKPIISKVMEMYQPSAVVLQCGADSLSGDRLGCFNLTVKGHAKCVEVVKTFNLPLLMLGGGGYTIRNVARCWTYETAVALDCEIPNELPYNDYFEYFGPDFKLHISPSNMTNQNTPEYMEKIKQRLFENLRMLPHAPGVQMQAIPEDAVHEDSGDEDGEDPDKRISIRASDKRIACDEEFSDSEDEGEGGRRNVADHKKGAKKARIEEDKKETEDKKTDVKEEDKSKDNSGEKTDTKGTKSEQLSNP

As to `O=C(O)C(CCCc1ccccc1)CCc1ccc(Oc2ccccc2)cc1` (centres unmarked) [Example 65, 2-{2-[4-Phenoxyphenyl]ethyl}-5-phenylpentanoic acid], the concentration for half-maximal inhibition (IC50) in test [1] fell in the range of 100 to 1000 µM.
In test [2], `CCc1ccc(CCC(CCCc2ccc(S(=O)(=O)Nc3ccccc3)cc2)C(=O)OC)cc1` (centres unmarked) [Example 47, Methyl 5-[4-(anilinosulfonyl)phenyl]-2-[2-(4-ethylphenyl)ethyl]pentanoate] returned an EC50 of 23 µM.
As for `N#Cc1cccc(Oc2ccc(CCC(CCCc3ccccc3)C(=O)O)cc2)c1` (centres unmarked) [Example 62, 2-{2-[4-(3-cyanophenoxy)phenyl]ethyl}-5-phenylpentanoic acid], the half-maximal inhibitory concentration (IC50) in test [1] was 10 to 100 µM. For the same compound, the EC50 in test [2] came to 155 µM.
For `CCc1ccc(CCC(CCCc2cccc3ccccc23)C(=O)O)cc1` (centres unmarked) [Example 50, 5-(1-Naphthyl)-2-[2-(4-ethylphenyl)ethyl]-pentanoic acid], in that order: 100 to 1000 µM and 103 µM.
`Nc1ccc(CCC(CCCc2ccccc2)C(=O)O)cc1` (centres unmarked) [Example 32, 2-[2-(4-Aminophenyl)ethyl]-5-phenylpentanoic acid]: the IC50 in test [1] was 100 to 1000 µM.
For the compound `O=C(O)C(CCCc1ccccc1)SCc1ccccc1` (centres unmarked) [Example 70, Sodium 2-(benzylthio)-5-phenylpentanoate], the IC50 in test [1] was 100 to 1000 µM. For the same compound, in test [2], the concentration giving a half-maximal response (EC50) is 825 µM.
`Cc1ccc(NS(=O)(=O)c2cccc(CCCC(CCCc3ccccc3)C(=O)O)c2)cc1` (centres unmarked) [Example 44, 5-[3-(4-methylanilinosulfonyl)phenyl]-2-(3-phenylpropyl)pentanoic acid]: the IC50 in test [1] fell in the range of 10 to 100 µM. For the same compound, the EC50 in test [2] amounted to 95 µM.
For the compound `O=C(O)C(CCCc1ccccc1)CCc1ccc(Oc2ccc(F)cc2)cc1` (centres unmarked) [Example 64, 2-{2-[4-(4-Fluorophenoxy)phenyl]ethyl}-5-phenylpentanoic acid], the half-maximal inhibitory concentration (IC50) in test [1] lay in the range of 100 to 1000 µM.
In test [2], `CC(=O)OCOC(=O)C(CCCc1cccc(S(=O)(=O)Nc2ccc(C)cc2)c1)CCc1ccccc1` (centres unmarked) [Example 18] yielded an EC50 of 95 µM.
In test [2], `CC(=O)OCOC(=O)C(CCc1ccccc1)Cc1ccccc1` (centres unmarked) [Example 15, (Acetyloxy)methyl 2-benzyl-4-phenylbutanoate] showed a 50% effective concentration (EC50) of 85 µM.
On to `O=C(O)C(CCCc1ccccc1)CCc1ccc(Oc2ccc(C(F)(F)F)cc2)cc1` (centres unmarked) [Example 66, 2-{2-[4-(4-Trifluoromethylphenoxy)phenyl]ethyl}-5-phenyl pentanoic acid], for which the IC50 in test [1] lay within 100 to 1000 µM.
On the same count and under the same terms, the value for `O=C(O)C(CCCc1ccccc1)CCc1ccc(OCc2cccnc2)cc1` (centres unmarked) [Example 59, 2-{2-[4-(Pyridin-3-ylmethoxy)phenyl]ethyl}-5-phenyl pentanoic acid] was 10 to 100 µM; that for `O=C(O)C(CCc1ccccc1)SCCc1ccccc1` (centres unmarked) [Example 68, 4-Phenyl-2-[(2-phenylethyl)thio]butanoic acid] was 100 to 1000 µM.
For the compound `CC(=O)OCOC(=O)C(CCCc1ccccc1)CCc1ccccc1` (centres unmarked) [Example 16, (Acetyloxy)methyl 5-phenyl-2-(2-phenylethyl)pentanoate], the EC50 in test [2] was 267 µM.
Turning to `CCc1ccc(CCC(CCCCc2ccccc2)C(=O)O)cc1` (centres unmarked) [Example 48, 2-[2-(4-Ethylphenyl)ethyl]-6-phenylhexanoic acid], the concentration for half-maximal inhibition (IC50) in test [1] was 10 to 100 µM. In test [2], the half-maximal effective concentration (EC50) was found to be 112 µM.
For `N#Cc1ccc(Oc2ccc(CCC(CCCc3ccccc3)C(=O)O)cc2)cc1` (centres unmarked) [Example 63, 2-{2-[4-(4-cyanophenoxy)phenyl]ethyl}-5-phenylpentanoic acid], in that order: 10 to 100 µM and 88 µM.
As for `O=C(O)C(CCCc1cccc2ccccc12)CCc1ccc(-c2cccnc2)cc1` (centres unmarked) [Example 80, 5-(1-Naphthyl)-2-[2-(4′-pyridin-3-ylphenyl)ethyl]-pentanoic acid], the IC50 in test [1] lay in the range of 10 to 100 µM. The compound further displayed a half-maximal effective concentration (EC50) in test [2] of 107 µM.
In the case of `COc1ccc(Oc2ccc(CCC(CCCc3ccccc3)C(=O)O)cc2)cc1` (centres unmarked) [Example 67, 2-{2-[4-(4-Methoxyphenoxy)phenyl]ethyl}-5-phenylpentanoic acid], in test [1], the IC50 lay in the range of 10 to 100 µM.
On to `O=C(O)C(CCCc1ccccc1)CCc1ccc(Br)cc1` (centres unmarked) [Example 52, 2-[2-(4-Bromophenyl)ethyl]-5-phenylpentanoic acid], for which the half-maximal inhibitory concentration (IC50) in test [1] lay within 100 to 1000 µM. This compound also had a concentration giving a half-maximal response (EC50) in test [2] of 107 µM.
For `N#Cc1ccccc1Oc1ccc(CCC(CCCc2ccccc2)C(=O)O)cc1` (centres unmarked) [Example 61, 2-{2-[4-(2-Cyanophenoxy)phenyl]ethyl}-5-phenylpentanoic acid], in that order: 10 to 100 µM and 70.7 µM.
For `O=C(O)C(CCCc1ccccc1)CCc1ccc(OCc2ccccn2)cc1` (centres unmarked) [Example 58, 2-{2-[4-(Pyridin-2-ylmethoxy)phenyl]ethyl}-5-phenylpentanoic acid], in that order: 10 to 100 µM and 160 µM.
The matching figures for `Cc1ccc(S(=O)(=O)Nc2cccc(CCCC(CCc3ccccc3)C(=O)O)c2)cc1` (centres unmarked) [Example 25, 5-(3′-{[(4-Methylphenyl)sulfonyl]amino}phenyl)-2-(2-phenylethyl)pentanoic acid]: 10 to 100 µM and 121 µM.
For `O=C(O)C(CCCc1ccccc1)CCc1ccc(OCc2ccncc2)cc1` (centres unmarked) [Example 60, 2-{2-[4-(Pyridin-4-ylmethoxy)phenyl]ethyl}-5-phenylpentanoic acid], in test [1], the IC50 fell in the range of 100 to 1000 µM.
For `O=C(O)C(CCCc1ccccc1)CCC1CNc2ccccc21` (mixture of isomers) [Example 53, 2-[2-(2,3-Dihydro-1H-indol-3-yl)ethyl]-5-phenylpentanoic acid], in test [1], the IC50 is 10 to 100 µM.
With `O=C(O)C(CCCc1ccccc1)CCc1ccc(NCc2ccccc2)cc1` (centres unmarked) [Example 33, 2-[2-(4-(Benzylamino)phenyl)ethyl]-5-phenylpentanoic acid], the half-maximal inhibitory concentration (IC50) in test [1] is 10 to 100 µM. Also, the response in test [2] was half-maximal at 71.4 µM (EC50).
With `O=C(O)C(CCCc1ccccc1)CCc1ccc(O)cc1` (centres unmarked) [Example 54, 2-[2-(4-hydroxyphenyl)ethyl]-5-phenylpentanoic acid], the half-inhibitory concentration (IC50) in test [1] is 100 to 1000 µM.
Turning to `O=C(O)C(CCCc1ccccc1)CCc1ccc(-c2ccccc2)cc1` (centres unmarked) [Example 72, 2-[2-(1,1′-Biphenyl-4-yl)ethyl]-5-phenylpentanoic acid], the 50% inhibitory concentration (IC50) in test [1] was 10 to 100 µM. In test [2], this compound gave a half-maximal effective concentration (EC50) of 88.3 µM.
For `O=C(O)C(CCCc1ccccc1)CCc1ccc(-c2cccs2)cc1` (centres unmarked) [Example 78, 5-Phenyl-2-[2-(4′-thien-2-ylphenyl)ethyl]pentanoic acid], in that order: 10 to 100 µM and 87.2 µM.
For `O=C(O)C(CCCc1ccccc1)CCc1ccc(-c2ccco2)cc1` (centres unmarked) [Example 73, 2-{2-[4′-(2-Furyl)phenyl]ethyl}-5-phenylpentanoic acid], in that order: 100 to 1000 µM and 48.6 µM.
`CC(=O)OCOC(=O)C(CCCc1ccccc1)CCc1ccc(OCc2ccccc2)cc1` (centres unmarked) [Example 56, (Acetyloxy)methyl 2-[2-(4-benzyloxyphenyl)ethyl]-5-phenyl pentanoate] came in with a half-maximal effective concentration (EC50) in test [2] of 56 µM.
Still for that read-out and setting: next, `COc1ccc(NS(=O)(=O)c2cccc(CCCC(CCc3ccccc3)C(=O)OCOC(C)=O)c2)cc1OC` (centres unmarked) [Example 17, (Acetyloxy)methyl 5-(3-{[(3,4-dimethoxyphenyl)amino]sulfonyl}phenyl)-2-(2-phenylethyl)pentanoate]: 62 µM.
For `O=C(O)C(CCCCc1ccccc1)CCc1ccccc1` (centres unmarked) [Example 14, 6-Phenyl-2-(2-phenylethyl)hexanoic acid], the half-maximal inhibitory concentration (IC50) in test [1] lay within 10 to 100 µM. In test [2], this compound gave a 50% effective concentration (EC50) of 256 µM.
For `O=C(O)C(CCCc1ccccc1)CCc1ccc(-c2ccsc2)cc1` (centres unmarked) [Example 75, 2-{2-[4′-(3-Thienyl)phenyl]ethyl}-5-phenylpentanoic acid], in that order: 100 to 1000 µM and 184 µM.
For `O=C(O)C(CCCc1ccccc1)CCc1ccc(-c2ccncc2)cc1` (centres unmarked) [Example 76, 2-{2-[(4′-Pyridinyl)phenyl-4-yl]ethyl}-5-phenylpentanoic acid hydrochloride], in that order: 10 to 100 µM and 166 µM.
As to `CNS(=O)(=O)c1cccc(CCCC(CCc2ccccc2)C(=O)OC)c1` (centres unmarked) [Example 42, Methyl 5-(3-[(methylamino)sulfonyl]phenyl)-2-(2-phenylethyl)pentanoate], in test [2], the EC50 was 56 µM.

The term IC50 denotes the point on the concentration scale where inhibition reaches its midpoint. What is called EC50 is the midpoint of the concentration-response curve.

These data come from patent publication US20110105544A1, “CARBOXYLIC DERIVATIVES FOR USE IN THE TREATMENT OF CANCER” (priority 2007, published 2011).
